Assay results taken from the supplement of paper PMC10307832.

Columns and labels:
Experiment in all cases: relative viability (nuclei count vs DMSO), 5 days (fraction); higher = more cells survive
Sunitinib = compound: CCN(CC)CCNC(=O)c1c(C)[nH]c(/C=C2\C(=O)Nc3ccc(F)cc32)c1C [Sunitinib]
Procedure, shortened: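 Only plates meeting two conditions passed: control CV below 25% and at least one doubling. Lung cancer cell lines, kept overnight at 37 °C in 1536-well plates, were pinned with five library-drug doses (not always all listed) √10 apart on vehicle-anchored plates and grown 5 days without medium change. A one-step fix, permeabilisation and Hoechst stain preceded 4× imaging and MetaXpress nuclear counting. Viability equals treated-well nuclei divided by vehicle-well nuclei, as the median over plates.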

Sunitinib + Bortezomib = compound: CCN(CC)CCNC(=O)c1c(C)[nH]c(/C=C2\C(=O)Nc3ccc(F)cc32)c1C [Sunitinib] + CC(C)C[C@H](NC(=O)[C@H](Cc1ccccc1)NC(=O)c1cnccn1)B(O)O [Bortezomib] (partner 0.002 µM)
Procedure, shortened: (§1)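 Relative viability divides the nuclei count in treated wells by that in vehicle wells. Lung cancer cell lines were seeded in 1536-well plates, dosed by pin tool the next day, and fixed and stained after 5 days in one step with final 0.05% Triton X-100, 1% formaldehyde and 1 ug/ml Hoechst. Dosing was a single drug or a fixed anchor-drug dose plus five library-drug doses (not always all listed) in √10 steps, and values are medians of duplicate plates imaged at 4×.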

Sunitinib + Navitoclax = compound: CCN(CC)CCNC(=O)c1c(C)[nH]c(/C=C2\C(=O)Nc3ccc(F)cc32)c1C [Sunitinib] + CC1(C)CCC(c2ccc(Cl)cc2)=C(CN2CCN(c3ccc(C(=O)NS(=O)(=O)c4ccc(N[C@H](CCN5CCOCC5)CSc5ccccc5)c(S(=O)(=O)C(F)(F)F)c4)cc3)CC2)C1 [Navitoclax] (partner 0.5 µM)
Procedure, shortened: as §1

Sunitinib + Foretinib = compound: CCN(CC)CCNC(=O)c1c(C)[nH]c(/C=C2\C(=O)Nc3ccc(F)cc32)c1C [Sunitinib] + COc1cc2c(Oc3ccc(NC(=O)C4(C(=O)Nc5ccc(F)cc5)CC4)cc3F)ccnc2cc1OCCCN1CCOCC1 [Foretinib] (partner 0.25 µM)
Procedure, shortened: as §1

Sunitinib + Lapatinib = compound: CCN(CC)CCNC(=O)c1c(C)[nH]c(/C=C2\C(=O)Nc3ccc(F)cc32)c1C [Sunitinib] + CS(=O)(=O)CCNCc1ccc(-c2ccc3ncnc(Nc4ccc(OCc5cccc(F)c5)c(Cl)c4)c3c2)o1 [Lapatinib] (partner 2 µM)
Procedure, shortened: as §1

Sunitinib + Pictilisib = compound: CCN(CC)CCNC(=O)c1c(C)[nH]c(/C=C2\C(=O)Nc3ccc(F)cc32)c1C [Sunitinib] + CS(=O)(=O)N1CCN(Cc2cc3nc(-c4cccc5[nH]ncc45)nc(N4CCOCC4)c3s2)CC1 [Pictilisib] (partner 1 µM)
Procedure, shortened: as §1

Sunitinib + Crizotinib = compound: CCN(CC)CCNC(=O)c1c(C)[nH]c(/C=C2\C(=O)Nc3ccc(F)cc32)c1C [Sunitinib] + C[C@@H](Oc1cc(-c2cnn(C3CCNCC3)c2)cnc1N)c1c(Cl)ccc(F)c1Cl [Crizotinib] (partner 1 µM)
Procedure, shortened: as §1

Sunitinib + Linsitinib = compound: CCN(CC)CCNC(=O)c1c(C)[nH]c(/C=C2\C(=O)Nc3ccc(F)cc32)c1C [Sunitinib] + C[C@]1(O)C[C@@H](c2nc(-c3ccc4ccc(-c5ccccc5)nc4c3)c3c(N)nccn32)C1 [Linsitinib] (partner 1 µM)
Procedure, shortened: as §1

Sunitinib + Alpelisib = compound: CCN(CC)CCNC(=O)c1c(C)[nH]c(/C=C2\C(=O)Nc3ccc(F)cc32)c1C [Sunitinib] + Cc1nc(NC(=O)N2CCC[C@H]2C(N)=O)sc1-c1ccnc(C(C)(C)C(F)(F)F)c1 [Alpelisib] (partner 2 µM)
Procedure, shortened: as §1

Sunitinib + Vorinostat = compound: CCN(CC)CCNC(=O)c1c(C)[nH]c(/C=C2\C(=O)Nc3ccc(F)cc32)c1C [Sunitinib] + O=C(CCCCCCC(=O)Nc1ccccc1)NO [Vorinostat] (partner 1 µM)
Procedure, shortened: as §1

Sunitinib + Olaparib = compound: CCN(CC)CCNC(=O)c1c(C)[nH]c(/C=C2\C(=O)Nc3ccc(F)cc32)c1C [Sunitinib] + O=C(c1cc(Cc2n[nH]c(=O)c3ccccc23)ccc1F)N1CCN(C(=O)C2CC2)CC1 [Olaparib] (partner 8 µM)
Procedure, shortened: as §1

IA-LM
relative viability (Sunitinib; 0.02 µM): 0.951
relative viability (Sunitinib; 0.06325 µM): 0.953
relative viability (Sunitinib; 0.2 µM): 1.05
relative viability (Sunitinib; 0.6325 µM): 1.1
relative viability (Sunitinib; 2 µM): 1.07
relative viability (Sunitinib + Bortezomib; first compound 0.02 µM): 0.831
relative viability (Sunitinib + Bortezomib; first compound 0.06325 µM): 0.85
relative viability (Sunitinib + Bortezomib; first compound 0.2 µM): 0.868
relative viability (Sunitinib + Bortezomib; first compound 0.6325 µM): 1.12
relative viability (Sunitinib + Bortezomib; first compound 2 µM): 1.18
relative viability (Sunitinib + Navitoclax; first compound 0.02 µM): 0.767
relative viability (Sunitinib + Navitoclax; first compound 0.06325 µM): 0.912
relative viability (Sunitinib + Navitoclax; first compound 0.2 µM): 0.929
relative viability (Sunitinib + Navitoclax; first compound 0.6325 µM): 0.872
relative viability (Sunitinib + Navitoclax; first compound 2 µM): 0.814
relative viability (Sunitinib + Foretinib; first compound 0.02 µM): 1.12
relative viability (Sunitinib + Foretinib; first compound 0.06325 µM): 1.32
relative viability (Sunitinib + Foretinib; first compound 0.2 µM): 1.25
relative viability (Sunitinib + Foretinib; first compound 0.6325 µM): 1.14
relative viability (Sunitinib + Foretinib; first compound 2 µM): 1.19
relative viability (Sunitinib + Lapatinib; first compound 0.02 µM): 0.674
relative viability (Sunitinib + Lapatinib; first compound 0.06325 µM): 0.917
relative viability (Sunitinib + Lapatinib; first compound 0.2 µM): 0.804
relative viability (Sunitinib + Lapatinib; first compound 0.6325 µM): 0.81
relative viability (Sunitinib + Lapatinib; first compound 2 µM): 0.947
relative viability (Sunitinib + Pictilisib; first compound 0.02 µM): 0.419
relative viability (Sunitinib + Pictilisib; first compound 0.06325 µM): 0.395
relative viability (Sunitinib + Pictilisib; first compound 0.2 µM): 0.358
relative viability (Sunitinib + Pictilisib; first compound 0.6325 µM): 0.331
relative viability (Sunitinib + Pictilisib; first compound 2 µM): 0.402
relative viability (Sunitinib + Crizotinib; first compound 0.02 µM): 0.779
relative viability (Sunitinib + Crizotinib; first compound 0.06325 µM): 0.774
relative viability (Sunitinib + Crizotinib; first compound 0.2 µM): 0.982
relative viability (Sunitinib + Crizotinib; first compound 0.6325 µM): 0.926
relative viability (Sunitinib + Crizotinib; first compound 2 µM): 1.04
relative viability (Sunitinib + Linsitinib; first compound 0.02 µM): 0.558
relative viability (Sunitinib + Linsitinib; first compound 0.06325 µM): 0.719
relative viability (Sunitinib + Linsitinib; first compound 0.6325 µM): 0.561
relative viability (Sunitinib + Linsitinib; first compound 2 µM): 0.94
relative viability (Sunitinib + Alpelisib; first compound 0.02 µM): 0.645
relative viability (Sunitinib + Alpelisib; first compound 0.06325 µM): 0.812
relative viability (Sunitinib + Alpelisib; first compound 0.2 µM): 0.773
relative viability (Sunitinib + Alpelisib; first compound 0.6325 µM): 0.919
relative viability (Sunitinib + Alpelisib; first compound 2 µM): 0.87
relative viability (Sunitinib + Vorinostat; first compound 0.02 µM): 0.975
relative viability (Sunitinib + Vorinostat; first compound 0.06325 µM): 0.864
relative viability (Sunitinib + Vorinostat; first compound 0.2 µM): 0.987
relative viability (Sunitinib + Vorinostat; first compound 0.6325 µM): 0.952
relative viability (Sunitinib + Vorinostat; first compound 2 µM): 1.03
relative viability (Sunitinib + Olaparib; first compound 0.02 µM): 0.826
relative viability (Sunitinib + Olaparib; first compound 0.06325 µM): 0.973
relative viability (Sunitinib + Olaparib; first compound 0.2 µM): 0.842
relative viability (Sunitinib + Olaparib; first compound 2 µM): 0.981
